Measured values taken from the supplement of paper PMC10307832.

What was measured:
Assay in all cases: relative viability (nuclei count vs DMSO), 5 days (fraction); higher = more cells survive
[1] = compound: CC1=NN=C(O1)C2=NN=C(C=C2)N3CCC(CC3)OC4=C(C=CC(=C4)F)Cl + O=C(CCCCCCC(=O)Nc1ccccc1)NO [Vorinostat] (partner 1 µM)
Method in brief: (§1)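 Relative viability is defined as nuclei in treated wells over nuclei in vehicle wells. Duplicate plates were run and medians reported. Lung cancer cell lines in 1536-well plates were dosed by pin tool one day after seeding, with one drug or with a fixed anchor-drug dose plus five library-drug doses (not always all listed) in √10 steps, and nuclei were counted after 5 days.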

[2] = compound: CC1=NN=C(O1)C2=NN=C(C=C2)N3CCC(CC3)OC4=C(C=CC(=C4)F)Cl + Cc1cc(Nc2cc(N3CCN(C)CC3)nc(Sc3ccc(NC(=O)C4CC4)cc3)n2)n[nH]1 [Tozasertib] (partner 0.1 µM)
Method in brief: as §1

Tosedostat + Crizotinib = compound: CC(C)C[C@@H](C(=O)N[C@H](C(=O)OC1CCCC1)c1ccccc1)[C@H](O)C(=O)NO [Tosedostat] + C[C@@H](Oc1cc(-c2cnn(C3CCNCC3)c2)cnc1N)c1c(Cl)ccc(F)c1Cl [Crizotinib] (partner 1 µM)
Method in brief: as §1

Tosedostat + Decitabine = compound: CC(C)C[C@@H](C(=O)N[C@H](C(=O)OC1CCCC1)c1ccccc1)[C@H](O)C(=O)NO [Tosedostat] + Nc1ncn([C@H]2C[C@H](O)[C@@H](CO)O2)c(=O)n1 [Decitabine] (partner 2 µM)
Method in brief: as §1

With NCI-H1755 the relative viability ([1]; first compound 0.253 µM) was 0.538, the relative viability ([1]; first compound 0.8 µM) was 0.553 and the relative viability ([1]; first compound 2.53 µM) was 0.611. It also gave a relative viability ([1]; first compound 8 µM) of 0.538, a relative viability ([2]; first compound 0.253 µM) of 0.425 and a relative viability ([2]; first compound 0.8 µM) of 0.45. The relative viability ([2]; first compound 2.53 µM) was 0.467, the relative viability ([2]; first compound 8 µM) was 0.405 and the relative viability (Tosedostat + Crizotinib; first compound 0.02 µM) was 0.933. The relative viability (Tosedostat + Crizotinib; first compound 0.06325 µM) was 0.846, the relative viability (Tosedostat + Crizotinib; first compound 0.2 µM) was 0.876 and the relative viability (Tosedostat + Crizotinib; first compound 0.6325 µM) was 0.856. The relative viability (Tosedostat + Crizotinib; first compound 2 µM) was 0.771, the relative viability (Tosedostat + Decitabine; first compound 0.02 µM) was 0.861 and the relative viability (Tosedostat + Decitabine; first compound 0.06325 µM) was 0.699. It also gave a relative viability (Tosedostat + Decitabine; first compound 0.2 µM) of 0.712, a relative viability (Tosedostat + Decitabine; first compound 0.6325 µM) of 0.716 and a relative viability (Tosedostat + Decitabine; first compound 2 µM) of 0.674.

LC-2-ad showed a relative viability ([1]; first compound 0.253 µM) of 0.321, a relative viability ([1]; first compound 0.8 µM) of 0.254 and a relative viability ([1]; first compound 2.53 µM) of 0.322. For the same cell line, the relative viability ([1]; first compound 8 µM) was 0.284, the relative viability ([2]; first compound 0.253 µM) was 0.38 and the relative viability ([2]; first compound 0.8 µM) was 0.354. The relative viability ([2]; first compound 2.53 µM) was 0.359, the relative viability ([2]; first compound 8 µM) was 0.344 and the relative viability (Tosedostat + Crizotinib; first compound 0.02 µM) was 0.47. For the same cell line, the relative viability (Tosedostat + Crizotinib; first compound 0.06325 µM) was 0.454, the relative viability (Tosedostat + Crizotinib; first compound 0.2 µM) was 0.493 and the relative viability (Tosedostat + Crizotinib; first compound 0.6325 µM) was 0.378. It also gave a relative viability (Tosedostat + Crizotinib; first compound 2 µM) of 0.348, a relative viability (Tosedostat + Decitabine; first compound 0.02 µM) of 0.777 and a relative viability (Tosedostat + Decitabine; first compound 0.06325 µM) of 0.776. It also gave a relative viability (Tosedostat + Decitabine; first compound 0.2 µM) of 0.83, a relative viability (Tosedostat + Decitabine; first compound 0.6325 µM) of 0.746 and a relative viability (Tosedostat + Decitabine; first compound 2 µM) of 0.811.

Cell Line NCI-H1975 has a relative viability ([1]; first compound 0.253 µM) of 0.606, a relative viability ([1]; first compound 0.8 µM) of 0.643 and a relative viability ([1]; first compound 2.53 µM) of 0.629. For the same cell line, the relative viability ([1]; first compound 8 µM) was 0.619, the relative viability ([2]; first compound 0.8 µM) was 0.595 and the relative viability ([2]; first compound 2.53 µM) was 0.48. The relative viability ([2]; first compound 8 µM) was 0.261, the relative viability (Tosedostat + Crizotinib; first compound 0.02 µM) was 0.939 and the relative viability (Tosedostat + Crizotinib; first compound 0.06325 µM) was 1.01. For the same cell line, the relative viability (Tosedostat + Crizotinib; first compound 0.2 µM) was 1.1, the relative viability (Tosedostat + Crizotinib; first compound 0.6325 µM) was 0.773 and the relative viability (Tosedostat + Crizotinib; first compound 2 µM) was 0.802. It also gave a relative viability (Tosedostat + Decitabine; first compound 0.02 µM) of 0.396, a relative viability (Tosedostat + Decitabine; first compound 0.06325 µM) of 0.425 and a relative viability (Tosedostat + Decitabine; first compound 0.2 µM) of 0.4. It also gave a relative viability (Tosedostat + Decitabine; first compound 0.6325 µM) of 0.274 and a relative viability (Tosedostat + Decitabine; first compound 2 µM) of 0.407.

Work on ChaGo-K-1 yielded a relative viability ([1]; first compound 0.253 µM) of 0.546, a relative viability ([1]; first compound 0.8 µM) of 0.444 and a relative viability ([1]; first compound 2.53 µM) of 0.55. For the same cell line, the relative viability ([1]; first compound 8 µM) was 0.448, the relative viability ([2]; first compound 0.253 µM) was 0.258 and the relative viability ([2]; first compound 0.8 µM) was 0.226. For the same cell line, the relative viability ([2]; first compound 2.53 µM) was 0.226, the relative viability ([2]; first compound 8 µM) was 0.214 and the relative viability (Tosedostat + Crizotinib; first compound 0.02 µM) was 1.05. The relative viability (Tosedostat + Crizotinib; first compound 0.06325 µM) was 1.03, the relative viability (Tosedostat + Crizotinib; first compound 0.2 µM) was 1.14 and the relative viability (Tosedostat + Crizotinib; first compound 0.6325 µM) was 1.01. The relative viability (Tosedostat + Crizotinib; first compound 2 µM) was 0.84, the relative viability (Tosedostat + Decitabine; first compound 0.02 µM) was 0.487 and the relative viability (Tosedostat + Decitabine; first compound 0.06325 µM) was 0.526. The relative viability (Tosedostat + Decitabine; first compound 0.2 µM) was 0.543, the relative viability (Tosedostat + Decitabine; first compound 0.6325 µM) was 0.463 and the relative viability (Tosedostat + Decitabine; first compound 2 µM) was 0.419.

Work on Calu-6 yielded a relative viability (Tosedostat + Crizotinib; first compound 0.02 µM) of 0.924, a relative viability (Tosedostat + Crizotinib; first compound 0.06325 µM) of 0.755 and a relative viability (Tosedostat + Crizotinib; first compound 0.2 µM) of 0.762. It also gave a relative viability (Tosedostat + Crizotinib; first compound 0.6325 µM) of 0.682 and a relative viability (Tosedostat + Crizotinib; first compound 2 µM) of 0.415.

NCI-H2342 gave a relative viability ([1]; first compound 0.253 µM) of 0.551, a relative viability ([1]; first compound 0.8 µM) of 0.551 and a relative viability ([1]; first compound 2.53 µM) of 0.583. The relative viability ([1]; first compound 8 µM) was 0.436, the relative viability ([2]; first compound 0.253 µM) was 0.356 and the relative viability ([2]; first compound 0.8 µM) was 0.411. The relative viability ([2]; first compound 2.53 µM) was 0.417, the relative viability ([2]; first compound 8 µM) was 0.404 and the relative viability (Tosedostat + Decitabine; first compound 0.02 µM) was 0.713. It also gave a relative viability (Tosedostat + Decitabine; first compound 0.06325 µM) of 0.688, a relative viability (Tosedostat + Decitabine; first compound 0.2 µM) of 0.718 and a relative viability (Tosedostat + Decitabine; first compound 0.6325 µM) of 0.692. For the same cell line, the relative viability (Tosedostat + Decitabine; first compound 2 µM) was 0.689.

In the case of EBC-1, the relative viability (Tosedostat + Crizotinib; first compound 0.02 µM) is reported as 0.197, the relative viability (Tosedostat + Crizotinib; first compound 0.06325 µM) is reported as 0.185 and the relative viability (Tosedostat + Crizotinib; first compound 0.2 µM) is reported as 0.197. For the same cell line, the relative viability (Tosedostat + Crizotinib; first compound 0.6325 µM) was 0.179 and the relative viability (Tosedostat + Crizotinib; first compound 2 µM) was 0.153.

For NCI-H522, the relative viability ([1]; first compound 0.253 µM) was 0.958, the relative viability ([1]; first compound 0.8 µM) was 0.925 and the relative viability ([1]; first compound 2.53 µM) was 0.964. It also gave a relative viability ([1]; first compound 8 µM) of 0.805, a relative viability ([2]; first compound 0.253 µM) of 0.576 and a relative viability ([2]; first compound 0.8 µM) of 0.578. For the same cell line, the relative viability ([2]; first compound 2.53 µM) was 0.558, the relative viability ([2]; first compound 8 µM) was 0.534 and the relative viability (Tosedostat + Decitabine; first compound 0.02 µM) was 0.594. For the same cell line, the relative viability (Tosedostat + Decitabine; first compound 0.06325 µM) was 0.619, the relative viability (Tosedostat + Decitabine; first compound 0.2 µM) was 0.639 and the relative viability (Tosedostat + Decitabine; first compound 0.6325 µM) was 0.578. For the same cell line, the relative viability (Tosedostat + Decitabine; first compound 2 µM) was 0.72.

In the case of IA-LM, the relative viability ([1]; first compound 0.253 µM) is reported as 0.402, the relative viability ([1]; first compound 0.8 µM) is reported as 0.296 and the relative viability ([1]; first compound 2.53 µM) is reported as 0.435. It also gave a relative viability ([1]; first compound 8 µM) of 0.364, a relative viability (Tosedostat + Crizotinib; first compound 0.02 µM) of 0.937 and a relative viability (Tosedostat + Crizotinib; first compound 0.06325 µM) of 0.879. The relative viability (Tosedostat + Crizotinib; first compound 0.2 µM) was 0.776, the relative viability (Tosedostat + Crizotinib; first compound 0.6325 µM) was 0.692 and the relative viability (Tosedostat + Crizotinib; first compound 2 µM) was 0.602.

With NCI-H1793 the relative viability ([1]; first compound 0.253 µM) was 0.683, the relative viability ([1]; first compound 0.8 µM) was 0.567 and the relative viability ([1]; first compound 2.53 µM) was 0.79. The relative viability ([1]; first compound 8 µM) was 0.666, the relative viability ([2]; first compound 0.253 µM) was 0.368 and the relative viability ([2]; first compound 0.8 µM) was 0.302. It also gave a relative viability ([2]; first compound 2.53 µM) of 0.219, a relative viability ([2]; first compound 8 µM) of 0.195 and a relative viability (Tosedostat + Decitabine; first compound 0.02 µM) of 0.429. The relative viability (Tosedostat + Decitabine; first compound 0.06325 µM) was 0.435, the relative viability (Tosedostat + Decitabine; first compound 0.2 µM) was 0.407 and the relative viability (Tosedostat + Decitabine; first compound 0.6325 µM) was 0.222. For the same cell line, the relative viability (Tosedostat + Decitabine; first compound 2 µM) was 0.346.

In the case of NCI-H1299, the relative viability (Tosedostat + Crizotinib; first compound 0.02 µM) is reported as 1.05, the relative viability (Tosedostat + Crizotinib; first compound 0.06325 µM) is reported as 0.919 and the relative viability (Tosedostat + Crizotinib; first compound 0.2 µM) is reported as 0.933. It also gave a relative viability (Tosedostat + Crizotinib; first compound 0.6325 µM) of 0.926 and a relative viability (Tosedostat + Crizotinib; first compound 2 µM) of 0.873.

Cell Line CAL-12T has a relative viability ([1]; first compound 0.253 µM) of 0.524, a relative viability ([1]; first compound 0.8 µM) of 0.542 and a relative viability ([1]; first compound 2.53 µM) of 0.566. It also gave a relative viability ([1]; first compound 8 µM) of 0.368, a relative viability ([2]; first compound 0.253 µM) of 0.26 and a relative viability ([2]; first compound 0.8 µM) of 0.241. The relative viability ([2]; first compound 2.53 µM) was 0.227, the relative viability ([2]; first compound 8 µM) was 0.216 and the relative viability (Tosedostat + Crizotinib; first compound 0.02 µM) was 0.702. It also gave a relative viability (Tosedostat + Crizotinib; first compound 0.06325 µM) of 0.594, a relative viability (Tosedostat + Crizotinib; first compound 0.2 µM) of 0.727 and a relative viability (Tosedostat + Crizotinib; first compound 0.6325 µM) of 0.533. For the same cell line, the relative viability (Tosedostat + Crizotinib; first compound 2 µM) was 0.661.

Cell Line NCI-H2228 has a relative viability ([1]; first compound 0.253 µM) of 0.454, a relative viability ([1]; first compound 0.8 µM) of 0.586 and a relative viability ([1]; first compound 2.53 µM) of 0.391. It also gave a relative viability ([1]; first compound 8 µM) of 0.542, a relative viability ([2]; first compound 0.253 µM) of 0.214 and a relative viability ([2]; first compound 0.8 µM) of 0.198. For the same cell line, the relative viability ([2]; first compound 2.53 µM) was 0.212, the relative viability ([2]; first compound 8 µM) was 0.207 and the relative viability (Tosedostat + Crizotinib; first compound 0.02 µM) was 0.599. It also gave a relative viability (Tosedostat + Crizotinib; first compound 0.06325 µM) of 0.438, a relative viability (Tosedostat + Crizotinib; first compound 0.2 µM) of 0.48 and a relative viability (Tosedostat + Crizotinib; first compound 0.6325 µM) of 0.418. It also gave a relative viability (Tosedostat + Crizotinib; first compound 2 µM) of 0.445.
